Experimental data taken from publication PMC6018746, “Activation of the p53-MDM4 regulatory axis defines the anti-tumour response to PRMT5 inhibition through its role in regulating cellular splicing” (Scientific Reports, 2018).
pIC50: −log10 of the molar value. Where two headings read alike, the source gives them in different places.

System: panel of hematologic and solid cancer lines
Test: 6-day in vitro growth/death assay
Format: cell-based, human
Settings: read-out: gIC50
Procedure: To further develop these molecules and to guide clinical strategy, it was necessary to understand sensitivity in preclinical models by assessing the anti-tumour activity of the PRMT5 inhibitors in various cancers.
Cell lines were obtained from ATCC or DSMZ and were grown in recommended medium, which was most frequently RPMI-1640 containing 10% FBS. Cell line proliferation assays, Western blotting, qRT-PCR, and cell cycle analyses were performed as described previously[27],[28]. Antibody and gene expression reagents are as described in Supplementary Table 16. All studies were conducted in accordance with the GSK Policy on the Care, Welfare and Treatment of Laboratory Animals and were reviewed by the Institutional Animal Care and Use Committee either at GSK or by the ethical review process at the institution where the work was performed. Detailed descriptions of all methods can be found in the Supplemental Materials.

In the case of `O=C(NC[C@H](O)CN1CCc2ccccc2C1)c1ccnc(NC2CCC2)c1` [GSK3203591], the pIC50 (Homo sapiens, NCI-H747, NCIH747) was 5.82, the pIC50 (Homo sapiens, NCI-H1048, NCI-H1048) was 6.60 and the pIC50 (Homo sapiens, NCI-H1299, NCI-H1299) was 6.38. The pIC50 (Homo sapiens, NCI-H1437, NCI-H1437) was 6.33, the pIC50 (Homo sapiens, NCI-H1563, NCI-H1563) was < 4.53 and the pIC50 (Homo sapiens, NCI-H1581, NCI-H1581) was 4.89. For the same molecule, the pIC50 (Homo sapiens, NCI-H1648, NCI-H1648) was 4.68, the pIC50 (Homo sapiens, NCI-H1650, NCI-H1650) was 5.06 and the pIC50 (Homo sapiens, NCI-H1651, NCI-H1651) was 4.82. For the same molecule, the pIC50 (Homo sapiens, NCI-H1915, NCI-H1915) was 5.95, the pIC50 (Homo sapiens, NCI-H1975, NCI-H1975) was 6.54 and the pIC50 (Homo sapiens, NCI-H2087, NCI-H2087) was 6.29. It also gave a pIC50 (Homo sapiens, NCI-H2170, NCI-H2170) of 5.19, a pIC50 (Homo sapiens, NKM-1) of 8.12 and a pIC50 (Homo sapiens, NOMO-1, NOMO-1) of 5.14. It also gave a pIC50 (Homo sapiens, NU-DHL-1, NU-DHL-1) of 7.00, a pIC50 (Homo sapiens, NU-DUL-1, NU-DUL-1) of 6.26 and a pIC50 (Homo sapiens, OCI-AML-3, OCI-AML3) of 6.43. The pIC50 (Homo sapiens, OCI-AML-5, OCI-AML5) was 6.53, the pIC50 (Homo sapiens, OCI-LY19, OCI-LY-19) was 7.00 and the pIC50 (Homo sapiens, OCI-Ly1, OCILY-1) was < 4.53. The pIC50 (Homo sapiens, OCI-Ly3, OCI-LY3) was 5.82, the pIC50 (Homo sapiens, OCI-Ly10, OCILY-10) was 5.35 and the pIC50 (Homo sapiens, OCI-Ly18, OCI-LY-18) was 7.51. For the same molecule, the pIC50 (Homo sapiens, OCI-M1, OCI-M1) was 6.89, the pIC50 (Homo sapiens, OPM-2, OPM-2) was 7.40 and the pIC50 (Homo sapiens, PANC-1, PANC-1) was 6.03. The pIC50 (Homo sapiens, PANC-03-27, PANC-03.27) was 5.60, the pIC50 (Homo sapiens, PANC-08-13, PANC-08.13) was 6.87 and the pIC50 (Homo sapiens, PC-3, PC-3) was 5.72. It also gave a pIC50 (Homo sapiens, PC-9, PC9) of 7.02, a pIC50 (Homo sapiens, PER-403, PER-403) of 7.53 and a pIC50 (Homo sapiens, PER-624) of 6.28. For the same molecule, the pIC50 (Homo sapiens, PER-704) was 6.43, the pIC50 (Homo sapiens, PL-21, PL-21) was 6.48 and the pIC50 (Homo sapiens, PSN1, PSN-1) was 6.30. The pIC50 (Homo sapiens, PaTu 8988t, PA-TU-8988T) was < 4.53, the pIC50 (Homo sapiens, Panc 02.03, PANC-02.03) was 5.86 and the pIC50 (Homo sapiens, Panc 04.03, PANC-04.03) was 6.21. It also gave a pIC50 (Homo sapiens, Panc1005, PANC-10.05) of 5.68, a pIC50 (Homo sapiens, Pfeiffer) of 6.45 and a pIC50 (Homo sapiens, RCK8, RCK8) of 5.68. It also gave a pIC50 (Homo sapiens, RIVA) of 7.16, a pIC50 (Homo sapiens, RKO) of 5.66 and a pIC50 (Homo sapiens, RL) of 5.84. It also gave a pIC50 (Homo sapiens, RPMI-6666, RPMI-6666) of 5.57, a pIC50 (Homo sapiens, RPMI-8226, RPMI-8226) of 6.87 and a pIC50 (Homo sapiens, RPMI-8226-DOX) of 6.69. For the same molecule, the pIC50 (Homo sapiens, RPMI-8226-LR5) was 6.52, the pIC50 (Homo sapiens, RPMI-8226-MR20) was 6.42 and the pIC50 (Homo sapiens, RT-112, RT-112) was 5.96. The pIC50 (Homo sapiens, RVH-421, RVH-421) was < 4.53, the pIC50 (Homo sapiens, Rec1, REC-1) was 5.70 and the pIC50 (Homo sapiens, SC-1, SC-1) was 6.93. The pIC50 (Homo sapiens, SCaBER) was 6.59, the pIC50 (Homo sapiens, SF-126, SF-126) was 6.41 and the pIC50 (Homo sapiens, SF-295, SF295) was 5.01. It also gave a pIC50 (Homo sapiens, SF-539, SF539) of 7.12, a pIC50 (Homo sapiens, SH-4, SH-4) of 5.59 and a pIC50 (Homo sapiens, SHI-1) of 6.45. The pIC50 (Homo sapiens, SIG-M5, SIG-M5) was 6.50, the pIC50 (Homo sapiens, SK-BR-3, SK-BR-3) was 6.88 and the pIC50 (Homo sapiens, SK-CO-1, SK-CO-1) was 6.33. The pIC50 (Homo sapiens, SK-LU-1, SK-LU-1) was 6.05, the pIC50 (Homo sapiens, SK-MEL-5, SK-MEL-5) was 6.95 and the pIC50 (Homo sapiens, SK-MES-1, SK-MES-1) was 4.73. The pIC50 (Homo sapiens, SK-MM-2, SK-MM-2) was 5.90, the pIC50 (Homo sapiens, SK-NEP-1, SK-NEP-1) was 5.65 and the pIC50 (Homo sapiens, SK-UT-1, SK-UT-1) was 6.41. The pIC50 (Homo sapiens, SKM-1, SKM-1) was 6.96, the pIC50 (Homo sapiens, SKNO-1, SKNO-1) was 6.25 and the pIC50 (Homo sapiens, SNU-16, SNU16) was 6.76. For the same molecule, the pIC50 (Homo sapiens, SNU-C1, SNUC1) was 5.82, the pIC50 (Homo sapiens, SR-786, SR-786) was 7.48 and the pIC50 (Homo sapiens, SU-DHL10, SU-DHL-10) was 6.31. It also gave a pIC50 (Homo sapiens, SU-DHL-2, SU-DHL-2) of 7.07, a pIC50 (Homo sapiens, SU-DHL-4, SU-DHL-4) of 6.24 and a pIC50 (Homo sapiens, SU-DHL-5, SU-DHL-5) of 6.88. It also gave a pIC50 (Homo sapiens, SU-DHL-6, SU-DHL-6) of 7.89, a pIC50 (Homo sapiens, SU-DHL-8, SU-DHL-8) of 5.91 and a pIC50 (Homo sapiens, SU-DHL-16, SU-DHL-16) of 6.91. It also gave a pIC50 (Homo sapiens, SW48, SW48) of 5.03, a pIC50 (Homo sapiens, SW480, SW480) of 5.65 and a pIC50 (Homo sapiens, SW780, SW-780) of 6.35. The pIC50 (Homo sapiens, SW837, SW837) was 5.04, the pIC50 (Homo sapiens, SW900, SW900) was 5.10 and the pIC50 (Homo sapiens, SW982, SW982) was 6.43. The pIC50 (Homo sapiens, SW1271, SW1271) was 5.50, the pIC50 (Homo sapiens, SW1417, SW-1417) was 4.71 and the pIC50 (Homo sapiens, SW1573, SW1573) was 4.94. For the same molecule, the pIC50 (Homo sapiens, SW1710, SW-1710) was 5.00, the pIC50 (Homo sapiens, SW1990, SW-1990) was 6.90 and the pIC50 (Homo sapiens, SW-403, SW403) was 5.01. It also gave a pIC50 (Homo sapiens, SW-620, SW620) of 5.87, a pIC50 (Homo sapiens, T47D, T-47D) of 6.65 and a pIC50 (Homo sapiens, T84, T84) of 5.77. The pIC50 (Homo sapiens, T98MG) was 5.89, the pIC50 (Homo sapiens, T-24, T24) was 6.19 and the pIC50 (Homo sapiens, TCC-SUP, TCCSUP) was 4.95. The pIC50 (Homo sapiens, TF-1, TF-1) was 6.86, the pIC50 (Homo sapiens, THP-1, THP-1) was 6.02 and the pIC50 (Homo sapiens, Toledo) was 6.35. For the same molecule, the pIC50 (Homo sapiens, U138-MG, U138MG) was < 4.53, the pIC50 (Homo sapiens, U266B1) was 6.19 and the pIC50 (Homo sapiens, U2932, U2932) was 6.47. For the same molecule, the pIC50 (Homo sapiens, U-87 MG) was 6.89, the pIC50 (Homo sapiens, U-251, U251MG) was 5.46 and the pIC50 (Homo sapiens, U-937, U937) was 7.31. For the same molecule, the pIC50 (Homo sapiens, U-2940, U2940) was 5.63, the pIC50 (Homo sapiens, UMC-11, UMC11) was 4.97 and the pIC50 (Homo sapiens, UMUC3, UM-UC-3) was 4.72. For the same molecule, the pIC50 (Homo sapiens, VCaP) was < 4.53, the pIC50 (Homo sapiens, VM-CUB-1, VM-CUB1) was 5.80 and the pIC50 (Homo sapiens, WM 266-4, WM-266-4) was 4.76. For the same molecule, the pIC50 (Homo sapiens, WSU-FSCCL) was 6.57, the pIC50 (Homo sapiens, WSU-NHL) was 7.12 and the pIC50 (Homo sapiens, WSUDLCL2, WSU-DLCL2) was 6.19. For the same molecule, the pIC50 (Homo sapiens, WiDr) was 6.36, the pIC50 (Homo sapiens, YH13) was < 4.53 and the pIC50 (Homo sapiens, YKG-1, YKG1) was 6.59. For the same molecule, the pIC50 (Homo sapiens, Z-138, Z-138) was 7.87, the pIC50 (Homo sapiens, ZR-75-1, ZR-75-1) was 5.58 and the pIC50 (Homo sapiens, majority (147/276) of cell lines) was > 6.00. It also gave a pIC50 (J82) of 4.68, a pIC50 (JM1) of 7.12 and a pIC50 (JVM-2) of 6.76. The pIC50 (JeKo-1) was 5.21, the pIC50 (LN-229) was 5.94 and the pIC50 (MAVER-1) was 6.88. It also gave a pIC50 (MCF-7) of 6.67, a pIC50 (MDA-MB-231) of 5.53 and a pIC50 (MINO) of 6.27. For the same molecule, the pIC50 (NCI-H526-R) was 6.66, the pIC50 (NCI-H526) was 6.86 and the pIC50 (PER-403) was 7.54. The pIC50 (PER-624) was 6.28, the pIC50 (PER-704) was 6.43 and the pIC50 (Pfeiffer) was 6.45. For the same molecule, the pIC50 (RCK8) was 5.68, the pIC50 (REC-1) was 5.70 and the pIC50 (RIVA) was 7.17. The pIC50 (RL) was 5.84, the pIC50 (SF295) was 5.01 and the pIC50 (SK-BR-3) was 6.88. The pIC50 (SU-DHL-4) was 6.24, the pIC50 (SU-DHL-5) was 6.88 and the pIC50 (SU-DHL-6) was 7.89. The pIC50 (SU-DHL-8) was 5.91, the pIC50 (SU-DHL-10) was 6.31 and the pIC50 (SU-DHL-16) was 6.91. It also gave a pIC50 (SW-780) of 6.35, a pIC50 (T24) of 6.19 and a pIC50 (U251MG) of 5.46. The pIC50 (U937) was 7.31, the pIC50 (U2932) was 6.47 and the pIC50 (U2940) was 5.63. For the same molecule, the pIC50 (U-87MG) was 6.90, the pIC50 (UM-UC-3) was 4.72 and the pIC50 (WSU-DLCL2) was 6.19. It also gave a pIC50 (Z-138) of 7.85 and a pIC50 (ZR-75-1) of 5.58.
